Legend:
Assay type in all cases: biochemical
[1] = test system: Liver acetone powder from Calf; assay: Hydrolysis of ketoprofen esters by calf liver acetone powder; details: Calf powder, 0.2 millimole ester, procedure of Example 1
Method: (§1) A solution of 50 mg of ketoprofen methyl ester in 0.2 ml of ethanol was added to 10 mg of each of liver acetone powder from various animal sources (described in Table 1) in 5 ml of 0.1M potassium phosphate buffer (pH 7.0) After shaking at room temperature for 24 hours, the reaction mixtures were acidified to pH 2.0 with 6(N) HCl and extracted with 10 ml of ethyl acetate. A portion of the ethyl acetate extract was analyzed by HPLC on a Partisil 5 ODS-3 RAC column (9.4 mm×100 mm, Whatman) using a mixture of methanol and 10 mM ammonium dihydrogen phospate (9:1) and monitored by UV at 254 nm to determine the percentages of acid produced in the reaction.
(§2) To determine the percentage of R- and S-acid, a portion of the ethyl acetate extract was converted to the amide derivative of the acid produced with R(+)-1-phenylethylamine as follows. The ethyl acetate extract (5 ml) was dried over sodium sulfate, filtered and cooled to 0° C. To the cold solution was added 0.2 ml of N-methylmorpholine followed by 0.2 ml of isobutyl chloroformate. After gentle shaking at 0° C. for 10 minutes, 0.2 ml of R(+)-1-phenylethylamine was added and the shaking was continued at 0° C. for 5 minutes and at room temperature for another 5 minutes. The reaction mixture was washed successively with water (5 ml), 1(N) HCl (5 ml), and water (5 ml) to provide the amide derivative in ethyl acetate solution. The ethyl acetate solution of the amide derivative was then analyzed by HPLC on the same column and same solvent mixture but with a different composition, i.e., a ratio of 6:4, and monitored by UV to determine the percentages of R- acid and S-acids produced by hydrolysis. The enantiomeric excess (EE) is defined as the difference in percent between the percent R- acid and the percent S-acid, the higher enantiomer being reported in the parenthesis in Table I.
(§3) Several esters of ketoprofen (0.2 millimole) with various alkyl groups of varying chain length were hydrolyzed using liver acetone powders from bovine, calf and dog by the procedure described in Example 1. The reaction mixtures were analyzed by the same procedures as described in Example 1 and the results obtained are summarized in Table II.

[2] = test system: Liver acetone powder from Dog; assay: Hydrolysis of ketoprofen esters by dog liver acetone powder; details: Dog powder, 0.2 millimole ester, procedure of Example 1
Method: as §1, §2, §3

[3] = test system: Liver acetone powder from Bovine; assay: Hydrolysis of ketoprofen esters by bovine liver acetone powder; details: Bovine powder, 0.2 millimole ester, procedure of Example 1
Method: as §1, §2, §3

Structure (SMILES)	EE(%) of R-Acid [1] [%]	Percent of Acid R-Acid [1] [%]	Percent of Acid S-Acid [1] [%]	EE(%) of R-Acid [2] [%]	Percent of Acid R-Acid [2] [%]	Percent of Acid S-Acid [2] [%]	EE(%) of R-Acid [3] [%]	Percent of Acid R-Acid [3] [%]	Percent of Acid S-Acid [3] [%]
CCCCOC(=O)C(C)c1cccc(C(=O)c2ccccc2)c1 (stereo not drawn) [C-4]	38.2	65.6	34.4	68.8	84.4	15.6	33.4	66.7	33.3
CCOC(=O)C(C)c1cccc(C(=O)c2ccccc2)c1 (stereo not drawn) [C-2]	39.2	69.6	30.4	65.0	82.5	17.5	40.6	70.3	29.7
CCCCCCOC(=O)C(C)c1cccc(C(=O)c2ccccc2)c1 (stereo not drawn) [C-6]	42.0	71.0	29.0	35.8	67.9	32.1	45.4	72.7	27.3
